Experimental data taken from patent US20220372017A1, “HCK DEGRADERS AND USES THEREOF” (DANA-FARBER CANCER INSTITUTE, INC., priority 2019, published 2022).

Legend:
Assay type in all cases: cell-based
SRC = biological target: T1, SRC (Homo sapiens, UniProt P12931); assay: Proteomics, degradation of target kinases in MOLT4 cells: SRC; settings: cell line MOLT4 (FIGS. 7A-7B)
T1 construct: proteomics data on the degradation of target kinases in cell line MOLT4; endogenous in cells; host or cells: MOLT4
T1 sequence (P12931 whole entry): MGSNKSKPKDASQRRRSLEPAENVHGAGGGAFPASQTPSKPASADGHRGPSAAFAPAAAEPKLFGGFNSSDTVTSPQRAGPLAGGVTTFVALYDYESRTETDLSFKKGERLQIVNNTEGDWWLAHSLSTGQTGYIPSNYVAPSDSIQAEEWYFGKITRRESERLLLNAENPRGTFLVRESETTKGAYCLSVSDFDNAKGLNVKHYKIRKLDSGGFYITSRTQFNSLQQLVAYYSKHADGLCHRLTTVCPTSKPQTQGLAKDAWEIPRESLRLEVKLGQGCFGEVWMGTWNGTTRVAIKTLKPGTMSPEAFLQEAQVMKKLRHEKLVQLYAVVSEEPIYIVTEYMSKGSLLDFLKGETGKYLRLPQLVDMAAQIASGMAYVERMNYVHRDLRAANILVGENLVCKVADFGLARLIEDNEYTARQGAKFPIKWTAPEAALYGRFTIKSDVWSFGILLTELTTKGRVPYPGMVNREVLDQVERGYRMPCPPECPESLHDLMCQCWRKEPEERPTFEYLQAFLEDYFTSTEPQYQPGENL
Text: (§1) FIGS. 7A-7B show proteomics data on the degradation of target kinases in cell line MOLT4 (human T lymphoblast; acute lymphoblastic leukemia) using treatment with exemplary compounds SB1-G-181 and SB1-G-200. FIG. 7A indicates in the bottom left corner the exemplary kinase targets (FYN, SRC, BLK, LCK, CSK, ABL1, ABL2, LIMK1, LATS1) in cell line MOLT4 which were degraded by exemplary compound SB1-G-181. FIG. 7B indicates in the bottom left corner the exemplary kinase targets (FYN, SRC, BLK, LCK, CSK, ABL1, ABL2, LIMK1, LATS1) in cell line MOLT4 which were degraded by exemplary compound SB1-G-200.

BLK = biological target: T2, BLK (Homo sapiens, UniProt P51451); assay: Proteomics, degradation of target kinases in MOLT4 cells: BLK; settings: cell line MOLT4 (FIGS. 7A-7B)
T2 construct: proteomics data on the degradation of target kinases in cell line MOLT4; endogenous in cells; host or cells: MOLT4
T2 sequence (P51451 whole entry): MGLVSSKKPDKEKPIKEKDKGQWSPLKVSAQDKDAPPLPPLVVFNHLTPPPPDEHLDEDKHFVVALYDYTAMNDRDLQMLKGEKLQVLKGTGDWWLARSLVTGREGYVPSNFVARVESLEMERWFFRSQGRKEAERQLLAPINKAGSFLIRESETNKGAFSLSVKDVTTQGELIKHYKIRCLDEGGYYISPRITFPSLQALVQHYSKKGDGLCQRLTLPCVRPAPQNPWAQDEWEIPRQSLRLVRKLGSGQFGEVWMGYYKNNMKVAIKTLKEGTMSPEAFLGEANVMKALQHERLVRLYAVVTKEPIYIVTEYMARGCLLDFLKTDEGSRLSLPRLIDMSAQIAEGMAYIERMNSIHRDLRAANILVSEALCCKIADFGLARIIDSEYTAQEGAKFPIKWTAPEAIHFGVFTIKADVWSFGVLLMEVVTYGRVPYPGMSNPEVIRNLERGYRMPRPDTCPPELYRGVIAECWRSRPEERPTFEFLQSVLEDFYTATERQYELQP
Text: as §1

LCK = biological target: T3, LCK (Homo sapiens, UniProt P06239); assay: Proteomics, degradation of target kinases in MOLT4 cells: LCK; settings: cell line MOLT4 (FIGS. 7A-7B)
T3 construct: proteomics data on the degradation of target kinases in cell line MOLT4; endogenous in cells; host or cells: MOLT4
T3 sequence (P06239 whole entry): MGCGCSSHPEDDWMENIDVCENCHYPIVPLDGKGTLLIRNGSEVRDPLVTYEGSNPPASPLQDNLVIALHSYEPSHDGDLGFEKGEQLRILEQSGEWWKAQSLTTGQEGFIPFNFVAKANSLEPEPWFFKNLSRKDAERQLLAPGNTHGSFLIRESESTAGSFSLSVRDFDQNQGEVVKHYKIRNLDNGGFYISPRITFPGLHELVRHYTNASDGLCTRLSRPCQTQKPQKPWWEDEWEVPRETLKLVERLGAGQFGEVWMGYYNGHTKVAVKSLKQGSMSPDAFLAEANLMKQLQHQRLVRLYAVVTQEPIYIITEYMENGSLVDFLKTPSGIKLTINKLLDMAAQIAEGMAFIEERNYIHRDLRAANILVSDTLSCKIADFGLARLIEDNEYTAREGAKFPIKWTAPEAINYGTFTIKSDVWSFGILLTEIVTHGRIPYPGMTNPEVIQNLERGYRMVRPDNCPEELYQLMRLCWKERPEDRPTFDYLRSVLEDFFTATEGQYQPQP
Text: as §1

LATS1 = biological target: T4, LATS1 (Homo sapiens, UniProt O95835); assay: Proteomics, degradation of target kinases in MOLT4 cells: LATS1; settings: cell line MOLT4 (FIGS. 7A-7B)
T4 construct: proteomics data on the degradation of target kinases in cell line MOLT4; endogenous in cells; host or cells: MOLT4
T4 sequence (O95835 1-1130): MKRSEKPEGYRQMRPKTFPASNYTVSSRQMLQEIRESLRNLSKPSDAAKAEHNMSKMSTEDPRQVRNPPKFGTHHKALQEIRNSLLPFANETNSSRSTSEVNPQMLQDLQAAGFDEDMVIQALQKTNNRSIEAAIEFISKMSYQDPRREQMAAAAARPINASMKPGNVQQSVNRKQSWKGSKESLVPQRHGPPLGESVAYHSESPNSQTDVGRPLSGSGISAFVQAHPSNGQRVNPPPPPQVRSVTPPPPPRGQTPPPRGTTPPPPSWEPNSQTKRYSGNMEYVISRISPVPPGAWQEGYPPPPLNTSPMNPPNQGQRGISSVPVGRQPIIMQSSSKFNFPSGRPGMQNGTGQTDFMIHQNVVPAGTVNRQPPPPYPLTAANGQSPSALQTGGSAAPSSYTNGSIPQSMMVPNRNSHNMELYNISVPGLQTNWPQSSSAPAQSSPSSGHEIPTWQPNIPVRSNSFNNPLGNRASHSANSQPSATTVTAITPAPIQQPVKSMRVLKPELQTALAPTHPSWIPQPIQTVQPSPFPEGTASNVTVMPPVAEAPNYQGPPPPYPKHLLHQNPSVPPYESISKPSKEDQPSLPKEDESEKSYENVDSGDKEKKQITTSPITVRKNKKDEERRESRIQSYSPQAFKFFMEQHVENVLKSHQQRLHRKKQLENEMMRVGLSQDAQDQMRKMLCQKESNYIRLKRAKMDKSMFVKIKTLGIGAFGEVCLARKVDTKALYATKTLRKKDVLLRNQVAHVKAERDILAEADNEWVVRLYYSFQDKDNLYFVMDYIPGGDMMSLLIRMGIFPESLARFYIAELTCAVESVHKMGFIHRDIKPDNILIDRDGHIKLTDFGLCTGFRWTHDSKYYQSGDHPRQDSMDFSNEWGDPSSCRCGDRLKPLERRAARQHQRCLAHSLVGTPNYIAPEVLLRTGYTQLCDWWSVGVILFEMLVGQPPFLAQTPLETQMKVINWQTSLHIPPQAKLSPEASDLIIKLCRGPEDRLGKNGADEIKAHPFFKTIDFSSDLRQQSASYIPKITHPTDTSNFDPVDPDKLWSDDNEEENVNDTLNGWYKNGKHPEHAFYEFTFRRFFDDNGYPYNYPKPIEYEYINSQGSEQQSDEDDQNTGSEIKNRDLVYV
Text: as §1

ABL2 = biological target: T5, ABL2 (Homo sapiens, UniProt P42684); assay: Proteomics, degradation of target kinases in MOLT4 cells: ABL2; settings: cell line MOLT4 (FIGS. 7A-7B)
T5 construct: proteomics data on the degradation of target kinases in cell line MOLT4; endogenous in cells; host or cells: MOLT4
T5 sequence (P42684 whole entry): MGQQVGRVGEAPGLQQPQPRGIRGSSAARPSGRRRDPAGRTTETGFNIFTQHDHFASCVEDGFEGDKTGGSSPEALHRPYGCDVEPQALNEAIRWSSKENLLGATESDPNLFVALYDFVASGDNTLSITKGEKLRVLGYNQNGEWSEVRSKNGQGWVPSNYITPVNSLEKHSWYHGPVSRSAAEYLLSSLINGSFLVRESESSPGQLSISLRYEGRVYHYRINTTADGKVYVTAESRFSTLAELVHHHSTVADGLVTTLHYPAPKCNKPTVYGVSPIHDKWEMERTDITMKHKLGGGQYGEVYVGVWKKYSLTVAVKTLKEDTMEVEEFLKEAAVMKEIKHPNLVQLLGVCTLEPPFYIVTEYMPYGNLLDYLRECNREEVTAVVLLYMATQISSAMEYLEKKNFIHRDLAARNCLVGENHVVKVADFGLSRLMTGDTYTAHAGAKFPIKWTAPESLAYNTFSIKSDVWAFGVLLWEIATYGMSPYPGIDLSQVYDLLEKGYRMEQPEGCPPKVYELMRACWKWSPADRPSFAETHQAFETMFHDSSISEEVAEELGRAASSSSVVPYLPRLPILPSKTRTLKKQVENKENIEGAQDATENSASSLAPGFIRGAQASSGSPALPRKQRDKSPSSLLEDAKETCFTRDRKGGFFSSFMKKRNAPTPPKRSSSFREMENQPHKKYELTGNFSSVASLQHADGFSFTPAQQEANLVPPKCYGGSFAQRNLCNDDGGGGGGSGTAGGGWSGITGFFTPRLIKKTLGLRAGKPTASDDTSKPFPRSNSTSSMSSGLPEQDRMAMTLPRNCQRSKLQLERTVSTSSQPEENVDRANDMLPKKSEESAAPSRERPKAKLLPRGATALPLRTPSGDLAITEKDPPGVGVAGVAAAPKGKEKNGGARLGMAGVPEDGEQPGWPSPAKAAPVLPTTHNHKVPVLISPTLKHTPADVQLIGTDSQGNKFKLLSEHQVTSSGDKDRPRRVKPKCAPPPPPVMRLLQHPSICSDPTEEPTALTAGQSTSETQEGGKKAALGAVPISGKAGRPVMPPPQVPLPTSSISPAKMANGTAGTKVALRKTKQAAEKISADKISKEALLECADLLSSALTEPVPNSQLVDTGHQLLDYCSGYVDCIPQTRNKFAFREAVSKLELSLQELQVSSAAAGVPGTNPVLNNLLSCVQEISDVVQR
Text: as §1

FYN = biological target: T6, FYN (Homo sapiens, UniProt P06241); assay: Proteomics, degradation of target kinases in MOLT4 cells: FYN; settings: cell line MOLT4 (FIGS. 7A-7B)
T6 construct: proteomics data on the degradation of target kinases in cell line MOLT4; endogenous in cells; host or cells: MOLT4
T6 sequence (P06241 whole entry): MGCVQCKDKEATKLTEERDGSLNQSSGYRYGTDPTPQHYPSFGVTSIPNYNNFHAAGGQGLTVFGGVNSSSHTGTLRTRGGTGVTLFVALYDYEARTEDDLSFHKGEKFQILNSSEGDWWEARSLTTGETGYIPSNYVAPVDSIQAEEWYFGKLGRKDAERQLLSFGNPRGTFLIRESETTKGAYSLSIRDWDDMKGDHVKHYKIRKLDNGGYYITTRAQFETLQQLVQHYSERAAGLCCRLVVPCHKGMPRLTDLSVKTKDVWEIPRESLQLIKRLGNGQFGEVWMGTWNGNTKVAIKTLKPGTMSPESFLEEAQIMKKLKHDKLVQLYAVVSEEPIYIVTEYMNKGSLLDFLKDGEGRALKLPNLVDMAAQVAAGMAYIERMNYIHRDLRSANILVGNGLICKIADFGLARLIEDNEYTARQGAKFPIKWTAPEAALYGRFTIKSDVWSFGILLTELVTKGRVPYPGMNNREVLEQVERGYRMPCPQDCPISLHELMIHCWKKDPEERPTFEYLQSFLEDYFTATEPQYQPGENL
Text: as §1

CSK = biological target: T7, CSK (Homo sapiens, UniProt P41240); assay: Proteomics, degradation of target kinases in MOLT4 cells: CSK; settings: cell line MOLT4 (FIGS. 7A-7B)
T7 construct: proteomics data on the degradation of target kinases in cell line MOLT4; endogenous in cells; host or cells: MOLT4
Text: as §1

ABL1 = biological target: T8, ABL1 (Homo sapiens, UniProt P00519); assay: Proteomics, degradation of target kinases in MOLT4 cells: ABL1; settings: cell line MOLT4 (FIGS. 7A-7B)
T8 construct: proteomics data on the degradation of target kinases in cell line MOLT4; endogenous in cells; host or cells: MOLT4
Text: as §1

LIMK1 = biological target: T9, LIMK1 (Homo sapiens, UniProt P53667); assay: Proteomics, degradation of target kinases in MOLT4 cells: LIMK1; settings: cell line MOLT4 (FIGS. 7A-7B)
T9 construct: proteomics data on the degradation of target kinases in cell line MOLT4; endogenous in cells; host or cells: MOLT4
T9 sequence (P53667 whole entry): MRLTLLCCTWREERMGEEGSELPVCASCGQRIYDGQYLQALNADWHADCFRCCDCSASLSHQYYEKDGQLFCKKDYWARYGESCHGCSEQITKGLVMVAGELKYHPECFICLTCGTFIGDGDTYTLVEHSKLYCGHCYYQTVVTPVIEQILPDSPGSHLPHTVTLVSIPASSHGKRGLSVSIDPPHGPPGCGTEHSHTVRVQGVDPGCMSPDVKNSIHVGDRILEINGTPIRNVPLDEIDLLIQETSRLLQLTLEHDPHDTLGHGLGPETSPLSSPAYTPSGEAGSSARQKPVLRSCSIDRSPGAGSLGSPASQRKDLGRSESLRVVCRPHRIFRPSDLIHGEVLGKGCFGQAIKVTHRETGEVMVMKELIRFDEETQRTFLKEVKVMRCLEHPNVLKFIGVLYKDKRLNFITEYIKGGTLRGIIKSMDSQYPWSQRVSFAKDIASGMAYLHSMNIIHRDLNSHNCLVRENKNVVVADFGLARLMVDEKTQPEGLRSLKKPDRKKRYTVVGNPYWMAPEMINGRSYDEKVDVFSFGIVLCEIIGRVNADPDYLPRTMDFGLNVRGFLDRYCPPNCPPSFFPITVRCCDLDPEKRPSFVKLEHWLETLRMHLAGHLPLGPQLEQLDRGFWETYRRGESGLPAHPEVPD
Text: as §1

HCK = biological target: T10, HCK (Homo sapiens, UniProt P08631); assay: Western blot protein degradation assessment, HCK
T10 construct: following treatment of MYD88 mutated BCWM.1 cells; endogenous in cells; host or cells: BCWM.1 WM cells (parental and vector/BTK-WT/BTK-C481S transduced); TMD8 ABC-DLBCL cells (transduced)
Experimental: (§2) SK-6-1 was used as a degrader control compound.
(§3) SK-6-1 was used as a degrader control compound. […] “ABC-DLBCL” is activated B-cell (ABC) lymphoma, diffuse large B-cell lymphoma (DLBCL).
(§4) Western blots were performed for the detection of protein degradation following the cell treatments with HCK degraders using antibodies for HCK (Cell Signaling), BTK (Cell Signaling) or Phospho-BTK (Tyr223) (Abcam). GAPDH was used for determination of protein loading.

BTK [1] = biological target: T11, BTK (Homo sapiens, UniProt Q06187); assay: Western blot protein degradation assessment, BTK; settings: MYD88 mutated BCWM.1 cells, 6 hours, Western blot (FIG. 4)
T11 construct: following treatment of MYD88 mutated BCWM.1 cells; endogenous in cells
T11 sequence (Q06187 2-659): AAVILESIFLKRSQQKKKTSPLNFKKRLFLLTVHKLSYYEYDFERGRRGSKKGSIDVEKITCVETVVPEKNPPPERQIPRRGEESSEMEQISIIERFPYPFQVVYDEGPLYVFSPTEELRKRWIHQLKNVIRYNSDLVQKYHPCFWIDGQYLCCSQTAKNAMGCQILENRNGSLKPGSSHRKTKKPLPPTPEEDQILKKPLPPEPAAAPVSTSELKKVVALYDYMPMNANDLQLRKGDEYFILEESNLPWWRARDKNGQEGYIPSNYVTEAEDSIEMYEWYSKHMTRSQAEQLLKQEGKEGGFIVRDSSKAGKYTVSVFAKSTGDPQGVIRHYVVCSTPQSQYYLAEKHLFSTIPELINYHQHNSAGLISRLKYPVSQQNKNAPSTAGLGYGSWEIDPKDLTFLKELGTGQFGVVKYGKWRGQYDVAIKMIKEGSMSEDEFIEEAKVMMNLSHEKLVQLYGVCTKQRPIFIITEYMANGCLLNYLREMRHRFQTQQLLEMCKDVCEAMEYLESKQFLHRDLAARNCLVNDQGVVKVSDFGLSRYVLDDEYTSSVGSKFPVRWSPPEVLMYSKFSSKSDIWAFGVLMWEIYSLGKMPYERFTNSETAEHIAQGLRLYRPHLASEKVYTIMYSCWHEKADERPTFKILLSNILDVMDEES
Experimental: as §2, §3, §4

Phospho-BTK (Tyr223) = assay: Western blot, Phospho-BTK (Tyr223); settings: vector only
Experimental: as §2, §3, §4

BTK [2] = biological target: T12, BTK (Homo sapiens, UniProt Q06187, C481S); assay: Western blot protein degradation assessment, BTK; settings: BTK^C481S mutant transduced BCWM.1 WM cells, 6 hours (FIG. 5)
T12 construct: following treatment of MYD88 mutated BCWM.1 cells; endogenous in cells
T12 sequence (Q06187 2-659 C481S): as the sequence (Q06187 2-659) above, with C480S counted along it
Experimental: as §2, §3, §4

BTK [3] = assay: Western blot protein degradation assessment, BTK; settings: vector only, BTK^WT or BTK^C481S transduced TMD8 ABC-DLBCL cells, 6 hours (FIG. 6)
Experimental: as §2, §3, §4

[4] = MYD88 mutated BCWM.1 cells, 6 hours, Western blot (FIG. 4)

degradation of SRC (proteomics) (SRC)	degradation of BLK (proteomics) (BLK)	degradation of LCK (proteomics) (LCK)	degradation of LATS1 (proteomics) (LATS1)	degradation of ABL2 (proteomics) (ABL2)	degradation of FYN (proteomics) (FYN)	degradation of CSK (proteomics) (CSK)	degradation of ABL1 (proteomics) (ABL1)	degradation of LIMK1 (proteomics) (LIMK1)	degradation of HCK (HCK; [4])	degradation of BTK (BTK [1])	degradation of HCK (HCK; vector only, BTK^WT or BTK^C481S transduced BCWM.1 WM cells, 6 hours (FIG. 5))	degradation of HCK (HCK; vector only, BTK^WT or BTK^C481S transduced TMD8 ABC-DLBCL cells, 6 hours (FIG. 6))	degradation of BTK (BTK [2])	Compound	BTK phosphorylation at Tyr-223 (Phospho-BTK (Tyr223); BTK^WT or BTK^C481S transduced BCWM.1 WM cells, 6 hours (FIG. 5))	BTK phosphorylation at Tyr-223 (Phospho-BTK (Tyr223); BTK^WT or BTK^C481S transduced TMD8 ABC-DLBCL cells, 6 hours (FIG. 6))	degradation of BTK (BTK [3])
degraded	degraded	degraded	degraded	degraded	degraded	degraded	degraded	degraded	–	–	–	–	–	Nc1ncnc2c1c(-c1ccc(Oc3ccccc3)cc1)nn2[C@H]1CC[C@H](N2CCN(CCOCCNC(=O)CNc3cccc4c3C(=O)N(C3CCC(=O)NC3=O)C4=O)CC2)CC1 (stereo partly drawn) [SB1-G-181, N-(2-(2-(4-((1r,4r)-4-(4-amino-3-(4-phenoxyphenyl)-1H-pyrazolo[3,4-d]pyrimidin-1-yl)cyclohexyl)piperazin-1-yl)ethoxy)ethyl)-2-(2-(2,6-dioxopiperidin-3-yl)-1,3-dioxoisoindolin-4-ylamino)acetamide]	–	–	–
–	–	–	–	–	–	–	–	–	effective degradation	effective degradation	–	–	–	Nc1ncnc2c1c(-c1ccc(Oc3ccccc3)cc1)nn2C1CCC(N2CCN(CCOCCNC(=O)CNc3cccc4c3C(=O)N(C3CCC(=O)NC3=O)C4=O)CC2)CC1 (stereo not drawn) [SB1-G-181-P1]	–	–	–
–	–	–	–	–	–	–	–	–	effective degradation	effective degradation	–	–	–	Nc1ncnc2c1c(-c1ccc(Oc3ccccc3)cc1)nn2[C@H]1CC[C@H](N2CCN(CCOCCOCCOCCNC(=O)CNc3cccc4c3C(=O)N(C3CCC(=O)NC3=O)C4=O)CC2)CC1 (stereo partly drawn) [SB1-G-182-P1]	–	–	–
–	–	–	–	–	–	–	–	–	effective degradation	effective degradation	effective degradation	effective degradation	diminished	Nc1ncnc2c1c(-c1ccc(Oc3ccccc3)cc1)nn2[C@H]1CC[C@H](N2CCN(CCOCCOCCNC(=O)CNc3cccc4c3C(=O)N(C3CCC(=O)NC3=O)C4=O)CC2)CC1 (stereo partly drawn) [SB1-G-185-P1]	blocked	blocked	effective degradation
degraded	degraded	degraded	degraded	degraded	degraded	degraded	degraded	degraded	–	–	–	–	–	Nc1ncnc2c1c(-c1ccc(Oc3ccccc3)cc1)nn2[C@H]1CC[C@H](N2CCN(CCCCCCNC(=O)COc3cccc4c3C(=O)N(C3CCC(=O)NC3=O)C4=O)CC2)CC1 (stereo partly drawn) [SB1-G-200]	–	–	–
